Measured values reported in patent US12134607B2, “Crystals of tetrahydronaphthyl urea derivative” (MOCHIDA PHARMACEUTICAL CO., LTD., priority 2017, dated 2024).
In brackets after ≈: the same amount, converted by molar mass. Read-outs that look alike come from different tables or passages of the source.

Key:
Storage stability test = format: physicochemical
Experimental: For the stability test, approximately 20 mg of the test sample was stored at 25° C./60% RH or at 40° C./75% RH in open or closed condition for 1 month using a small environmental tester SH-641 (manufactured by Espec), and changes in purity and in crystalline form were observed.
For purity measurement, equipment of Waters ACQUITY UPLC H-Class (manufactured by Waters) and column of Waters ACQUITY BEH C18 (particle diameter […], size 2.1×50 mm) are used. For the mobile phase, 10 mmol/L ammonium bicarbonate buffer pH 9.0 and acetonitrile were used; and the test sample solution at 100 μg/mL in the mixture solvent of THF (tetrahydrofuran):10 mmol/L ammonium bicarbonate buffer (20:80) was prepared.
(Test Example 2) Storage Stability Test
The type I (Example 2), III (Example 3), V (Example 4) and VI (Example 5) crystals (each about 20 mg) of 1-((1R,2R)-2-hydroxy-4,4-dimethyl-1,2,3,4-tetrahydronaphthalen-1-yl)-3-(5-methyl-6-(2-methylpyrimidin-5-yl)-2-phenylpyridin-3-yl)urea obtained in the above Examples 2 to 5 were stored in glass bottles under the respective conditions described in Table 7. After completion of the storage period, the retrieved sample was confirmed on the purity by high performance liquid chromatography and on the crystal form by powder X-ray diffraction analysis as in the Examples.

[1] = Determination of equilibrium solubility in phosphate buffer solution with pH 6.8; format: physicochemical; details: pH 6.8 phosphate buffer, mean value of three measurements
Excerpt: (Test Example 1) Determination of Equilibrium Solubility (Determination of Solubility in Phosphate Buffer Solution with pH 6.8)
Each of the equilibrium solubilities (solubility in phosphate buffer solution with pH 6.8) of Type I (Example 2), III (Example 3), V (Example 4) and VI crystals (Example 5) of 1-((1R,2R)-2-hydroxy-4,4-dimethyl-1,2,3,4-tetrahydronaphthalen-1-yl)-3-(5-methyl-6-(2-methylpyrimidin-5-yl)-2-phenylpyridin-3-yl)urea obtained in the above (Example 2) to (Example 5) was determined as follows:
Water was added a weighed potassium dihydrogen phosphate of 2.7 g to make 100 mL volume to prepare 0.2 mol/L potassium dihydrogen phosphate solution. Water was added a weighed disodium hydrogen phosphate […] of 7.2 g to make 100 mL volume to prepare 0.2 mol/L disodium hydrogen phosphate solution. A pH 6.8 phosphate buffer solution was prepared by diluting a mixture of 0.2 mol/L potassium dihydrogen phosphate solution (14.8 mL) and 0.2 mol/L disodium hydrogen phosphate solution (10.0 mL) with water (173.6 mL).
Approximately 1 mg of the each crystal from (Example 2) to (Example 5) was weighed into a screw tube, and a pH 6.8 phosphate buffer solution (1 mL) was added. An isothermal shaker (M-BR-022UP) was used to incubate the sample at 37° C. and 1000 rpm for 24 hours. 100 μL solution were sampled at 1, 2, 6, and 24 hours after the start of incubation, and were filtered using a centrifuge (HITACHI, Himac cF 9RX, at 25° C., at 1500 rpm, for 30 seconds) with a filter (Millipore: Multiscreen, MSSLBPC10) so as to remove insoluble materials. A 20 μL of the filtrate was quantified, and diluted with a solution (180 μL, pH 9.0) of 20 vol % tetrahydrofuran and 80 vol % ammonium bicarbonate aqueous solution (10 mM). A 10 μL of the prepared solution was quantified, and diluted with a solution (190 μL, pH 9.0) of 20 vol % tetrahydrofuran and 80 vol % ammonium bicarbonate aqueous solution (10 mM). The prepared solution was analyzed by ultra performance liquid chromatography (UPLC) under the following measurement conditions, and the concentration of the compound in the solution was calculated based on a previously prepared calibration curve. Three times of measurements were made for each example compound, and the mean values and standard deviations of the three measurements are shown as a result in Table 6.
<UPLC measurement conditions> Equipment: ACQUITY UPLC H-Class (Waters) Detector: PDA (200-500 nm) Column: BEH C18 2.1×50 mm Measurement wavelength: 270 nm Column temperature: 40° C. Injection amount: 10 μL Mobile phase: • Solvent A, acetonitrile; • Solvent B, 10 mM ammonium bicarbonate aqueous solution (pH 9.0) Gradient conditions: […]

[2] = Photostability test according to ICH Q1B; format: physicochemical
Experimental: (Test Example 3) Photostability Test
The type I (Example 2), III (Example 3), V (Example 4), and VI (Example 5) crystals (each about 20 mg) of 1-((1R,2R)-2-hydroxy-4,4-dimethyl-1,2,3,4-tetrahydronaphthalen-1-yl)-3-(5-methyl-6-(2-methylpyrimidin-5-yl)-2-phenylpyridin-3-yl)urea obtained in the above Examples 2 to 5 were placed in a transparent plastic container and covered, and were subjected to photostability test according to the ICH Q1B (Guidelines on Photostability Testing of New Active Substances and Medicinal Products) described in Table 8 (Here, the photostability test samples were stored at about 25° C. under separate lamps which respectively emits visible light and UV-A light so that the total light exposure should be 1.2 million lux hours and 200 W hours/m^2 or more, respectively. A 5-day study should be designated as “0.5 ICH” and a 10-day study as “1 ICH”). […] After completion of the test, the retrieved sample was confirmed on the purity by high performance liquid chromatography and on the crystal form by powder X-ray diffraction analysis as in the Examples.

[3] = Pharmacokinetic study, single oral dose in rats; format: in vivo; details: male, Crl:CD (SD), rat, plasma, po, 600 mg/kg
Experimental: (Pharmacology Experiment 5): Pharmacokinetic Study
Plasma sample obtained by centrifugation of blood (12000×g, for 5 minutes, at 4° C.) was measured to determine plasma concentration of the test compound using high performance liquid chromatography/mass spectrometry. Similarly, concentrations of standard solutions containing the test compound at known concentrations (0.001, 0.002, 0.005, 0.01, 0.02, 0.05, 0.1, 0.2, 0.5, 1, 2, and 5 μg/mL) were measured. And then, the plasma concentration (μg/mL) of the compound (1) was calculated from the prepared calibration curve to obtain the maximum plasma concentration (Cmax (μg/mL)) and the area under the plasma concentration-time curve (AUC (μg·hr/mL)). Measurement conditions can be appropriately adjusted by a person skilled in the art.

[4] = 25° C./60% RH, closed for 1 month
[5] = 25° C./60% RH, open for 1 month
[6] = 40° C./75% RH, closed for 1 month
[7] = 40° C./75% RH, open for 1 month
[8] = Shielded from light by aluminum foil, 0.5 ICH
[9] = Shielded from light by aluminum foil, 1 ICH
[10] = Shielded from light by aluminum foil, Before the test

SMILES: Cc1ncc(-c2nc(-c3ccccc3)c(NC(=O)N[C@@H]3c4ccccc4C(C)(C)C[C@H]3O)cc2C)cn1 [Example 5, 1-((1R,2R)-2-hydroxy-4,4-dimethyl-1,2,3,4-tetrahydronaphthalen-1-yl)-3-(5-methyl-6-(2-methylpyrimidin-5-yl)-2-phenylpyridin-3-yl)urea]
- Chemical purity (%) (Storage stability test; [4]): 99.9%
- Crystalline form after completion of storage period (Storage stability test; [4]): Type VI crystal
- Chemical purity (%) (Storage stability test; [5]): 99.9%
- Crystalline form after completion of storage period (Storage stability test; [5]): Type VI crystal
- Chemical purity (%) (Storage stability test; [6]): 99.9%
- Crystalline form after completion of storage period (Storage stability test; [6]): Type VI crystal
- Chemical purity (%) (Storage stability test; [7]): 99.9%
- Crystalline form after completion of storage period (Storage stability test; [7]): Type VI crystal
- Chemical purity (%) (Storage stability test; Before the test): 99.8%
- Crystalline form after completion of storage period (Storage stability test; Before the test): Type VI crystal
- Crystal form change during storage (Storage stability test; storage (open system)): transferred to the type I crystal
- Solubility ([1]; phosphate buffer solution pH 6.8, 37 °C, pH 6.8, aqueous buffer, thermodynamic from solid, read-out: Solubility): 41.1 µg/mL (≈ 83.3 µM)
- Chemical purity (%) ([2]; Exposure, 0.5 ICH (5-day)): 99.7%
- Crystalline form after completion of storage period ([2]; Exposure, 0.5 ICH (5-day)): Type I crystal
- Chemical purity (%) ([2]; Exposure, 1 ICH (10-day)): 99.5%
- Crystalline form after completion of storage period ([2]; Exposure, 1 ICH (10-day)): Type I crystal
- Chemical purity (%) ([2]; Exposure, Before the test): 99.8%
- Crystalline form after completion of storage period ([2]; Exposure, Before the test): Type I crystal
- Chemical purity (%) [2, 8]: 99.8%
- Crystalline form after completion of storage period [2, 8]: Type I crystal
- Chemical purity (%) [2, 9]: 99.8%
- Crystalline form after completion of storage period [2, 9]: Type I crystal
- Chemical purity (%) [2, 10]: 99.8%
- Crystalline form after completion of storage period [2, 10]: Type VI crystal
- Crystal form change during photostability tests ([2]; result in words): transferred to the type I crystal
- Stability against light ([2]; result in words, listed as type VI crystal): unstable against light

SMILES: Cc1ncc(-c2nc(-c3ccccc3)c(NC(=O)N[C@@H]3c4ccccc4C(C)(C)C[C@H]3O)cc2C)cn1 [Example 2, 1-((1R,2R)-2-hydroxy-4,4-dimethyl-1,2,3,4-tetrahydronaphthalen-1-yl)-3-(5-methyl-6-(2-methylpyrimidin-5-yl)-2-phenylpyridin-3-yl)urea]
- Chemical purity (%) (Storage stability test; [4]): 99.8%
- Crystalline form after completion of storage period (Storage stability test; [4]): Type I crystal
- Chemical purity (%) (Storage stability test; [5]): 99.8%
- Crystalline form after completion of storage period (Storage stability test; [5]): Type I crystal
- Chemical purity (%) (Storage stability test; [6]): 99.8%
- Crystalline form after completion of storage period (Storage stability test; [6]): Type I crystal
- Chemical purity (%) (Storage stability test; [7]): 99.8%
- Crystalline form after completion of storage period (Storage stability test; [7]): Type I crystal
- Chemical purity (%) (Storage stability test; Before the test): 99.8%
- Crystalline form after completion of storage period (Storage stability test; Before the test): Type I crystal
- Moisture absorption (Storage stability test; during the storage period): no moisture absorption was observed
- Chemical and physical stability over the test period (Storage stability test; storage for 1 month, result in words): chemically and physically stable
- Solubility ([1]; 37° C.): 33.2 µg/mL (≈ 67.3 µM)
- Chemical purity (%) ([2]; Exposure, 0.5 ICH (5-day)): 99.2%
- Crystalline form after completion of storage period ([2]; Exposure, 0.5 ICH (5-day)): Type I crystal
- Chemical purity (%) ([2]; Exposure, 1 ICH (10-day)): 98.9%
- Crystalline form after completion of storage period ([2]; Exposure, 1 ICH (10-day)): Type I crystal
- Chemical purity (%) ([2]; Exposure, Before the test): 99.8%
- Crystalline form after completion of storage period ([2]; Exposure, Before the test): Type I crystal
- Chemical purity (%) [2, 8]: 99.8%
- Crystalline form after completion of storage period [2, 8]: Type I crystal
- Chemical purity (%) [2, 9]: 99.8%
- Crystalline form after completion of storage period [2, 9]: Type I crystal
- Chemical purity (%) [2, 10]: 99.8%
- Crystalline form after completion of storage period [2, 10]: Type I crystal
- Stability against light ([2]; result in words, listed as type I crystal): stable against light
- AUC ([3]; oral single dose 600 mg/kg in 0.5 w/v % methylcellulose 400, read-out: Area Under Plasma Concentration (AUC)): 561 µg·h/mL
- Cmax ([3]; oral single dose 600 mg/kg in 0.5 w/v % methylcellulose 400, read-out: Maximum Plasma Concentration (Cmax)): 29700 ng/mL
